Measurements as given in patent US20190106460A1, “BINDING INHIBITORS OF THE BETA. TRANSDUCIN REPEAT-CONTAINING PROTEIN” (priority 2011, published 2019).
Like-named read-outs stand apart in the source and are kept apart here. Starred links: 1 amine or outer side, 2 acyl side, 3 side chain; linkers in the order of their positions; H or OH if unused. Non-standard residues stand in square brackets, D forms with d. Residues, ends and D or L forms follow the SMILES beside them. *: point of attachment. Benzenesulfonyl(4-OMe) = COc1ccc(S(=O)(=O)*)cc1; Phe(3-F) = N[C@@H](Cc1cccc(F)c1)C(=O)O; 1Nal = N[C@@H](Cc1cccc2ccccc12)C(=O)O; NMeE = CN[C@@H](CCC(=O)O)C(=O)O; X2 = COc1ccc(S(=O)(=O)*)cc1OC; Suc = O=C(CCC(=O)[*:2])[*:1]; Tos = Cc1ccc(S(=O)(=O)*)cc1; Propionyl = CCC(=O)*; Bz = O=C(c1ccccc1)*

How the values were obtained:
βTrCP [1] = molecular target: βTrCP (Homo sapiens, UniProt Q9Y297); assay: Fluorescence polarisation (FP) binding assay with fluorescein-tagged IκB peptide
Target sequence in this assay (P63208 whole entry partner, one chain of several): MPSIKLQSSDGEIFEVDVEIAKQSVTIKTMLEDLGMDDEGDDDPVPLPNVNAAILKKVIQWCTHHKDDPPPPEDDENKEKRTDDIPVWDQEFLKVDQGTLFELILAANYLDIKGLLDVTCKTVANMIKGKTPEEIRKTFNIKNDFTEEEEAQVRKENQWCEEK

βTrCP [2] = molecular target: T1, βTrCP (Homo sapiens, UniProt Q9Y297); assay: Biotin pull down assay with biotinylated IκB peptide; format: binding; details: for Biotin Pulldown Assay 10 μM: 10 μM compound; for Biotin Pulldown Assay 100 μM: 100 μM compound
T1 sequence (Q9Y297 1-605): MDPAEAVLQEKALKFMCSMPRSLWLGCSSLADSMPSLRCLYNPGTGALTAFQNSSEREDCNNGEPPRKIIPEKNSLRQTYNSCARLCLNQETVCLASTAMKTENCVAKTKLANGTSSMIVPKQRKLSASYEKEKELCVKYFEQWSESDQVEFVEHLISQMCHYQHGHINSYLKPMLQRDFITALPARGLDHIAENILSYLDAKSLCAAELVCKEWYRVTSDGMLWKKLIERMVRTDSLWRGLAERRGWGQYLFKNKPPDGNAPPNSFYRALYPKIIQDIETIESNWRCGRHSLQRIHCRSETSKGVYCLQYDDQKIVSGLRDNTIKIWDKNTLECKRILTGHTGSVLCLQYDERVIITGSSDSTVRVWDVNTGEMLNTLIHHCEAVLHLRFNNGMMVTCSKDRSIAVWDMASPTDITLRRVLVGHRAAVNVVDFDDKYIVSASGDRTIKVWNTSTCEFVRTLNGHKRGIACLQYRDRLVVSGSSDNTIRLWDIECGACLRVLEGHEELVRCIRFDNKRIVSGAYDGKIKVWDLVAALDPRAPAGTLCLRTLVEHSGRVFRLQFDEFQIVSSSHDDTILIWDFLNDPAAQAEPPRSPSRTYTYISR

β-TrCP1/Skp1 = β-TrCP1/Skp1 (Homo sapiens, UniProt Q9Y297); assay: βTrCP ubiquitination assay (Ub assay); format: biochemical; details: for Ub Assay 10 μM: 10 μM compound; for Ub Assay 100 μM: 100 μM compound
Sequence of β-TrCP1/Skp1 (P63208 2-163 partner limits assumed, one chain of several): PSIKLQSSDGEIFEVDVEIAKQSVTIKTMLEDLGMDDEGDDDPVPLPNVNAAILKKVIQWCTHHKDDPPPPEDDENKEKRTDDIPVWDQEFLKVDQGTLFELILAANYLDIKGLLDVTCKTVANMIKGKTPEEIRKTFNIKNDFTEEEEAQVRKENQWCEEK
Description: (§1) βTrCP Ubiquitination Assay and Selectivity Assays
0.5 μM Peptide substrate (biotin)
(§2) Master mixes were prepared in a 50 mM Herpes buffer at pH 7.5, in 75 mM NaCl and 1 mM DTT without Mg or ATP and peptides were added to a final concentration of 100 μM. Reactions were incubated at room temperature for 30 minutes and then Mg/ATP was added to the mix. Reactions were further incubated for an additional 60 minutes and then stopped by adding SDS gel loading buffer and boiled for 5 minutes. Reactions were run on SDS-PAGE (10%) and transferred to nitrocellulose membranes and probed with HRP-Streptavidin.
Candidate compounds were tested in duplicate at both 10 and 100 μM against the E3 ligase cascades βTrCP(IκBα) and βTrCP(β-catenin). The E3 assays were carried out according to the component concentrations detailed in Table 9. In each case the E2 was HA,6His-UbcH3-(hu,FL), the E1 was 6His-UBE1-(hu,FL) and the ubiquitin (Sigma U6253) was biotinylated at a 5:1 ratio. Substrate phosphorylation was performed in the absence of compound; consequently any observed signal modulation should not reflect inhibition of the up-stream kinase reaction. All other steps (E1, E2 and substrate ubiquitination) were carried out in the presence of compound. The stopped reaction mix (10 μl) was added to an ECL plate loaded with anti c-Myc ( 1/500 Dilution, Millipore 05-724) and blocked with 5% BSA. Binding was allowed to proceed for 1 hour at RT before a wash step (3 40 μl PBST washes). Detection was achieved by binding SA-Ru TAG at 1 μg/ml (1 hour @ RT, 3 40 μl PBST washes) before reading on an MSD Sector Imager 6000.
Assays were performed as described above

Skp2 = Skp2 (Homo sapiens, UniProt Q13309); assay: Selectivity assay vs other E3s: Skp2; format: biochemical; details: for inhibition at 100 µM: read-out: % Inhibition Skp2 @ (100 μM); for inhibition at 10 µM: read-out: % Inhibition Skp2 @ 10 μM
Sequence of Skp2 (Q13309 whole entry, species assumed): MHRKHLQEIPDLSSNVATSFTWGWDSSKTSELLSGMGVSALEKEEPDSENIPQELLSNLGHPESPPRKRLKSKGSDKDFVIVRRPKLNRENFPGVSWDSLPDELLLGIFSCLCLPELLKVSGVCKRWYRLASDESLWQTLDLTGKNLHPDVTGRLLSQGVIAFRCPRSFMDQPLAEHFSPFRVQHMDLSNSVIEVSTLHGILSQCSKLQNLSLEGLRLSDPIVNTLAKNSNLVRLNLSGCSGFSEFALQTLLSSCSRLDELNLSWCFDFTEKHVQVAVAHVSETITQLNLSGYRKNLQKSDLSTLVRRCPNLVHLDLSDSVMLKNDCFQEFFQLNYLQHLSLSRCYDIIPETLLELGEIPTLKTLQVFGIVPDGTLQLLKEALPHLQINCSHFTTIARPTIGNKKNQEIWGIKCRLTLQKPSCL
Sequence of Skp2 (P63208 whole entry partner, species assumed): as the sequence (P63208 whole entry partner, one chain of several) above
Sequence of Skp2 (Q13616 whole entry partner, species assumed): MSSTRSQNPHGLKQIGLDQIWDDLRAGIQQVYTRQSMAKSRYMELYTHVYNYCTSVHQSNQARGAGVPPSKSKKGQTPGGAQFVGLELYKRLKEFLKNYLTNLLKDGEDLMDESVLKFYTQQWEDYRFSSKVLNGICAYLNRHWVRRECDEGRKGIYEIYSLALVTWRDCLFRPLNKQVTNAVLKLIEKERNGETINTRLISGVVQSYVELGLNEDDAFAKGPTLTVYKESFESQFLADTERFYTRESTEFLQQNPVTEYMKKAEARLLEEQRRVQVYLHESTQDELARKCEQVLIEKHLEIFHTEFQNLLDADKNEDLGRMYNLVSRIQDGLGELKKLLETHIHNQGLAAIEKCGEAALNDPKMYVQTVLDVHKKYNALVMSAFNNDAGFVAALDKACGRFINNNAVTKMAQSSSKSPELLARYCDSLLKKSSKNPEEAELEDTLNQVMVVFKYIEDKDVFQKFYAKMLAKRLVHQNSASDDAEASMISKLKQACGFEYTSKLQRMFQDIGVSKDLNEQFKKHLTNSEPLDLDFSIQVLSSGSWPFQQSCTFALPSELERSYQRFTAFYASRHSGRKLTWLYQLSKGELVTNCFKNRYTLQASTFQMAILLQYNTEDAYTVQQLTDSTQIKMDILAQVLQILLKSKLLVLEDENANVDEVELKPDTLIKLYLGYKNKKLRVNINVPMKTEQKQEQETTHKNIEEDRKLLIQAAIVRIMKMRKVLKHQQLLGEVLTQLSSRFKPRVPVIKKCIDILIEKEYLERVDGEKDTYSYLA
Sequence of Skp2 (P62877 whole entry partner, species assumed): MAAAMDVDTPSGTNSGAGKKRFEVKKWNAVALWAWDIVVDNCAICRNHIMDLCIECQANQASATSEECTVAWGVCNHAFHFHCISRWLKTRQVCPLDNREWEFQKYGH
Description: as §1, §2
(§3) Candidate compounds were tested for inhibition of Fbw7 and Skp2 as described above.

FBW7/Skp1 = FBW7/Skp1 (Homo sapiens, UniProt Q969H0); assay: Selectivity assay vs other E3s: Fbw7; format: biochemical; details: for inhibition at 100 µM: read-out: % Inhibition Fbw7 @ (100 μM); for inhibition at 10 µM: read-out: % Inhibition Fbw7 @ 10 μM
Sequence of FBW7/Skp1 (Q969H0 whole entry, species assumed): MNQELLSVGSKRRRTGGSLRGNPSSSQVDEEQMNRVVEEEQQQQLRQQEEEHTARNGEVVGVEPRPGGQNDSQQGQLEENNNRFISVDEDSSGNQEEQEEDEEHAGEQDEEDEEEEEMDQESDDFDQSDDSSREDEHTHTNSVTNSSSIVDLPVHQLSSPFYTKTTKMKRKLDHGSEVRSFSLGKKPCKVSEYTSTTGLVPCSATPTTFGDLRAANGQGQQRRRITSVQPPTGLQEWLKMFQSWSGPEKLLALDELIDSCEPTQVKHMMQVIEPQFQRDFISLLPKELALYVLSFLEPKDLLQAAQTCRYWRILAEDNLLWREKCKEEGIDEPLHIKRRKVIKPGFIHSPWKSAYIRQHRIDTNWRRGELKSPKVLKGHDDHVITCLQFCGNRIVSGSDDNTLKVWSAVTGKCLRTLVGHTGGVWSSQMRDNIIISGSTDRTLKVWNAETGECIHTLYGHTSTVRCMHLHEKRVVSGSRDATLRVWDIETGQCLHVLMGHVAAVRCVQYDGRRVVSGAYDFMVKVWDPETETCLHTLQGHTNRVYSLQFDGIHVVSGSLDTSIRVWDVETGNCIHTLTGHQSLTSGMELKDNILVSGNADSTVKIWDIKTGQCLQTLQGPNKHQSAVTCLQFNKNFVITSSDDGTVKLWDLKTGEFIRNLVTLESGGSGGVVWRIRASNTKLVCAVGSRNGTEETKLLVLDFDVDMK
Sequence of FBW7/Skp1 (P63208 whole entry partner, species assumed): as the sequence (P63208 whole entry partner, one chain of several) above
Sequence of FBW7/Skp1 (Q13616 whole entry partner, species assumed): as the sequence (Q13616 whole entry partner, species assumed) above
Sequence of FBW7/Skp1 (P62877 whole entry partner, species assumed): as the sequence (P62877 whole entry partner, species assumed) above
Description: as §1, §2
FBW7 selectivity assays were performed in the same manner except using FBW7/Skp1 as E3 component and cyclin E as the substrate. Blots were probed using anti-cyclin E antibody.
as §3

[3] = Table 11, with spread, read-out: FP IC50/μM
[4] = Tables 1, 3, 7, 8, 10 nM fluorescein-tagged IκB peptide, read-out: FP Assay IC50/μM

Structure (SMILES) | IC50 (βTrCP [1]; [3]) | IC50 (βTrCP [1]; [4]) | Biotin Pulldown Assay 10 μM (βTrCP [2]) | Biotin Pulldown Assay 100 μM (βTrCP [2]) | Ub Assay 10 μM (β-TrCP1/Skp1) | Ub Assay 100 μM (β-TrCP1/Skp1) | inhibition at 100 µM (Skp2; 100 μM, value in brackets) | inhibition at 10 µM (Skp2) | inhibition at 100 µM (FBW7/Skp1; 100 μM, value in brackets) | inhibition at 10 µM (FBW7/Skp1) | IC50 (βTrCP [1]; FP Assay IC50/μM, Tables 1, 3, 7, 8, 10 nM fluorescein-tagged IκB peptide) | IC50 (βTrCP [1]; FP IC50/μM, Table 11, with spread) | inhibition at 100 µM (Skp2) | inhibition at 100 µM (FBW7/Skp1) | FP Assay IC50/μM (βTrCP [1]; Tables 1, 3, 7, 8, 10 nM fluorescein-tagged IκB peptide)
Cc1ccc(S(=O)(=O)N[C@H](CC(=O)O)C(=O)N[C@@H](CC(=O)O)C(=O)NCC(=O)N[C@@H](Cc2cccc(F)c2)C(=O)N[C@@H](Cc2c[nH]c3ccccc23)C(=O)N[C@@H](CC(=O)O)C(N)=O)cc1 [UBP028, Ts-dDGF(3F)WD-NH2] (Tos-[dD]DG[Phe(3-F)]WD-NH2) | 0.081 ± 0.02 µM | 0.081 µM | reduces/ | inhibits | inhibits/ | inhibits | 14% | 0% | 10% | 4% | – | – | – | – | –
NC(=O)[C@H](CCC(=O)O)NC(=O)[C@H](Cc1c[nH]c2ccccc12)NC(=O)[C@H](Cc1cccc(F)c1)NC(=O)CNC(=O)[C@H](CCC(=O)O)NC(=O)[C@@H](CC(=O)O)NC(=O)c1ccccc1 [UBP018, Bz-dEGF(3F)WE-NH2] (Bz-[dD]EG[Phe(3-F)]WE-NH2) | – | – | reduces/ | inhibits | reduces/ | inhibits | – | 0% | – | 0% | 0.173 µM | 0.173 ± 0.072 µM | 0% | 5% | –
COc1ccc(S(=O)(=O)N[C@@H](CC(=O)O)C(=O)N[C@@H](CCC(=O)O)C(=O)NCC(=O)N[C@@H](Cc2cccc(F)c2)C(=O)N[C@@H](Cc2c[nH]c3ccccc23)C(=O)N[C@@H](CCC(=O)O)C(N)=O)cc1 [4-(MeO)-PhSO2-DEGF(3F)WE-NH2] ({Benzenesulfonyl(4-OMe)}-DEG[Phe(3-F)]WE-NH2) | 0.027 ± 0.002 µM | – | – | – | – | – | 3% | 15% | 8% | 0% | – | – | – | – | –
CC(=O)N[C@H](CC(=O)O)C(=O)N[C@@H](CCC(=O)O)C(=O)NCC(=O)N[C@@H](Cc1cccc(F)c1)C(=O)N[C@@H](Cc1cccc2ccccc12)C(=O)N[C@@H](CCC(=O)O)C(N)=O [UBP016, Ac-dEGF(3F)1NalE-NH2] (Ac-[dD]EG[Phe(3-F)][1Nal]E-NH2) | 0.112 ± 0.017 µM | – | reduces/ | inhibits | reduces/ | inhibits | 7% | 0% | 8% | 3% | – | – | – | – | –
Cc1ccc(S(=O)(=O)N[C@@H](CC(=O)O)C(=O)N[C@@H](CCC(=O)O)C(=O)NCC(=O)N[C@@H](Cc2cccc(F)c2)C(=O)N[C@@H](Cc2c[nH]c3ccccc23)C(=O)N[C@@H](CCC(=O)O)C(N)=O)cc1 [Ts-DEGF(3F)WE-NH2] (Tos-DEG[Phe(3-F)]WE-NH2) | 0.018 ± 0.002 µM | – | – | – | – | – | 7% | 0% | 8% | 0% | – | – | – | – | –
COc1ccc(S(=O)(=O)N[C@H](CC(=O)O)C(=O)N[C@@H](CCC(=O)O)C(=O)NCC(=O)N[C@@H](Cc2cccc(F)c2)C(=O)N[C@@H](Cc2c[nH]c3ccccc23)C(=O)N[C@@H](CCC(=O)O)C(N)=O)cc1OC [UBP029, 3,4-(MeO)2-PhSO2-dEGF(3F)WE-NH2] (X2-[dD]EG[Phe(3-F)]WE-NH2) | 0.042 ± 0.001 µM | – | reduces/ | inhibits | reduces/ | inhibits | 19% | 19% | 0% | 2% | – | – | – | – | –
Cc1ccc(S(=O)(=O)N[C@H](CC(=O)O)C(=O)N[C@@H](CCC(=O)O)C(=O)NCC(=O)N[C@@H](Cc2cccc(F)c2)C(=O)N[C@@H](Cc2c[nH]c3ccccc23)C(=O)N[C@@H](CCC(=O)O)C(N)=O)cc1 [Ts-dEGF(3F)WE-NH2] (Tos-[dD]EG[Phe(3-F)]WE-NH2) | 0.029 ± 0.005 µM | – | – | – | – | – | 25% | 19% | 0% | 9% | – | – | – | – | –
NC(=O)[C@H](CCC(=O)O)NC(=O)[C@H](Cc1ccccc1)NC(=O)[C@H](Cc1ccccc1)NC(=O)CNC(=O)[C@H](CCC(=O)O)NC(=O)CCC(=O)O [UBP002, Suc-EGFFE-NH2] (Suc-EGFFE-NH2) | 3.18 ± 0.357 µM | – | no effect/ | reduces | reduces/ | inhibits | 0% | 14% | 0% | 0% | – | – | – | – | low μM inhibitor
CCC(=O)N[C@H](CC(=O)O)C(=O)N[C@@H](CCC(=O)O)C(=O)NCC(=O)N[C@@H](Cc1cccc(F)c1)C(=O)N[C@@H](Cc1c[nH]c2ccccc12)C(=O)N[C@@H](CCC(=O)O)C(N)=O [UBP019, Et(CO)-dEGF(3F)WE-NH2] (Propionyl-[dD]EG[Phe(3-F)]WE-NH2) | 0.145 ± 0.026 µM | 0.145 µM | reduces/ | inhibits | reduces/ | inhibits | 10% | 1% | 10% | 0% | – | – | – | – | –
Cc1ccc(S(=O)(=O)N[C@H](CC(=O)O)C(=O)N[C@@H](CCC(=O)O)C(=O)NCC(=O)N[C@@H](Cc2cccc(F)c2)C(=O)N[C@@H](Cc2c[nH]c3ccccc23)C(=O)N(C)[C@@H](CCC(=O)O)C(N)=O)cc1 [UBP032, Ts-dEGF(3F)WE(Me)-NH2] (Tos-[dD]EG[Phe(3-F)]W[NMeE]-NH2) | – | – | – | inhibits | – | inhibits | 0% | 0% | 10% | 4% | – | – | – | – | –
CC(=O)N[C@H](CC(=O)O)C(=O)N[C@@H](CCC(=O)O)C(=O)NCC(=O)N[C@@H](Cc1cccc(F)c1)C(=O)N[C@@H](Cc1c[nH]c2ccccc12)C(=O)N[C@@H](CCC(=O)O)C(N)=O [UBP017, Ac-dEGF(3F)WE-NH2] (Ac-[dD]EG[Phe(3-F)]WE-NH2) | 0.102 ± 0.017 µM | 0.102 µM | reduces/ | inhibits | reduces/ | inhibits | 27% | 10% | 0% | 3% | – | – | – | – | –
COc1ccc(S(=O)(=O)N[C@H](CC(=O)O)C(=O)N[C@@H](CCC(=O)O)C(=O)NCC(=O)N[C@@H](Cc2cccc(F)c2)C(=O)N[C@@H](Cc2c[nH]c3ccccc23)C(=O)N[C@@H](CCC(=O)O)C(N)=O)cc1 [4-(MeO)-PhSO2-dEGF(3F)WE-NH2] ({Benzenesulfonyl(4-OMe)}-[dD]EG[Phe(3-F)]WE-NH2) | 0.017 ± 0.002 µM | – | – | – | – | – | 12% | 7% | 18% | 0% | – | – | – | – | –
